Data set [1] is described as follows: Bioavailability in mouse. In kind it is ADME, organism-based. As to conditions: in vivo.
A short description of data set [2]: Bioavailability in rat. Type of data set: ADME, organism-based. To be noted: in vivo.
A short description of data set [3]: Bioavailability in dog. As to conditions: in vivo. In kind it is ADME, organism-based, Canis lupus familiaris.
A short description of data set [4]: Bioavailability in monkey. Type of data set: ADME, organism-based, Macaca mulatta. To be noted: rhesus monkey, in vivo.
The subject of data set [5] is PBMC. Briefly: Inhibition of TNF production in human PBMC. In kind it is functional, cell-based.
For data set [6], the system named is Mus musculus. Briefly: Toxicity in mouse at 200 mg/kg. Type of data set: organism-based. Set-up: dose 200 mg/kg. As to conditions: in vivo.
Data set [7] deals with Mus musculus. Nature of the data set: Inhibition of LPS-induced TNF production in mouse at 10 mg/kg after 2 hrs. In kind it is functional.
The subject of data set [8] is Mus musculus. Briefly: Inhibition of TNF production in mouse at 10 mg/kg. Type of data set: functional.
In data set [9] the target is T1, MAP kinase p38 (Homo sapiens, UniProt O15264+Q15759+Q16539+P53778). Briefly: Inhibition of p38 kinase. Type of data set: protein assay.
Data set [10] has as its system Mus musculus. Nature of the data set: Inhibition of TNF production in orally dosed mouse model. Type of data set: functional. As to conditions: po.
For data set [11], the target named is Mitogen-activated protein kinase 14 (Homo sapiens, UniProt Q16539). Briefly: Binding affinity to p38alpha.
Mitogen-activated protein kinase 14, sequence (Q16539 whole entry): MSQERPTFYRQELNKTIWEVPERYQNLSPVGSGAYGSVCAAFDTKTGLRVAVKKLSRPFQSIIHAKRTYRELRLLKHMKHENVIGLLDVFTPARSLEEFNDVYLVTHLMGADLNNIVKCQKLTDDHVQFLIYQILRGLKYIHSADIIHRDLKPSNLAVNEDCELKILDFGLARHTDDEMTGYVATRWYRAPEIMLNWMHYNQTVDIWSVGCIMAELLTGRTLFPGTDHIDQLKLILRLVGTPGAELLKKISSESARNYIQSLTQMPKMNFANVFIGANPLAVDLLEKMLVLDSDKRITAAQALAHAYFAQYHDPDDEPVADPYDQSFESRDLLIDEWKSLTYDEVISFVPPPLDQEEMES
Data set [12] deals with T2, Cytochrome P450 1A2 (Homo sapiens, UniProt P05177).
T2 sequence (P05177 whole entry): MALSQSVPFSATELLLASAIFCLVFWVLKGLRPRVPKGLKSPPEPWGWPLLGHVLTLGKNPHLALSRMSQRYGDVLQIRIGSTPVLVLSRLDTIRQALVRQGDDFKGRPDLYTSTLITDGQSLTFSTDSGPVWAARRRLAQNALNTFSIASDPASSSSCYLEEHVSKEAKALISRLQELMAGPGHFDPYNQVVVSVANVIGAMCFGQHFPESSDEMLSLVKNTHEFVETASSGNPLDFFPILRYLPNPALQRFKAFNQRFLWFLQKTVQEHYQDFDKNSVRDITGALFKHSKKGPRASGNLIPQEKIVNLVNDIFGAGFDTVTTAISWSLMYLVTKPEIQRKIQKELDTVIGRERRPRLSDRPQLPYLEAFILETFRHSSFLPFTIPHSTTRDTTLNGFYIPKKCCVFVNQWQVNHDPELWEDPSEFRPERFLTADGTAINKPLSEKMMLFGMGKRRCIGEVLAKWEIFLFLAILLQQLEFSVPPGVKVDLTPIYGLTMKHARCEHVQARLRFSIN
Briefly: Inhibition of CYP1A2 below 15 uM. Type of data set: ADME.

Data set [13] concerns the target Cytochrome P450 2D6 (Homo sapiens, UniProt P10635). Briefly: Inhibition of CYP2D6 below 15 uM. Type of data set: ADME.
For data set [14], the target named is Cytochrome P450 2C9 (Homo sapiens, UniProt P11712). Nature of the data set: Inhibition of CYP2C9. In kind it is ADME.
Cytochrome P450 2C9, sequence (P11712 whole entry): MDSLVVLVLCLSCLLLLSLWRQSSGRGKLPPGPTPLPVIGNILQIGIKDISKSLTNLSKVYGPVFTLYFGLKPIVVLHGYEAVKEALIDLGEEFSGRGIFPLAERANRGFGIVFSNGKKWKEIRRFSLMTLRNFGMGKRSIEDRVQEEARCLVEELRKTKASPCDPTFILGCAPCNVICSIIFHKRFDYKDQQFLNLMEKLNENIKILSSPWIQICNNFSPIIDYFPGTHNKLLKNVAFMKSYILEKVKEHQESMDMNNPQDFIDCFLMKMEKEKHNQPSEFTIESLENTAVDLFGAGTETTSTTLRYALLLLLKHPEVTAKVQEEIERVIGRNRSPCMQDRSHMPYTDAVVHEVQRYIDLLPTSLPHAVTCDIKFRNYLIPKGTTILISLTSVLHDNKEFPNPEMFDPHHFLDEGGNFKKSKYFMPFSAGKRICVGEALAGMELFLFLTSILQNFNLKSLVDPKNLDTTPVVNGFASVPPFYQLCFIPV
Data set [15] addresses Cytochrome P450 3A4 (Homo sapiens, UniProt P08684). Nature of the data set: Inhibition of CYP3A4 below 15 uM. In kind it is ADME.
Data set [16] deals with Cytochrome P450 2C19 (Homo sapiens, UniProt P33261). Briefly: Inhibition of CYP2C19. Type of data set: ADME.
Cytochrome P450 2C19, sequence (P33261 whole entry): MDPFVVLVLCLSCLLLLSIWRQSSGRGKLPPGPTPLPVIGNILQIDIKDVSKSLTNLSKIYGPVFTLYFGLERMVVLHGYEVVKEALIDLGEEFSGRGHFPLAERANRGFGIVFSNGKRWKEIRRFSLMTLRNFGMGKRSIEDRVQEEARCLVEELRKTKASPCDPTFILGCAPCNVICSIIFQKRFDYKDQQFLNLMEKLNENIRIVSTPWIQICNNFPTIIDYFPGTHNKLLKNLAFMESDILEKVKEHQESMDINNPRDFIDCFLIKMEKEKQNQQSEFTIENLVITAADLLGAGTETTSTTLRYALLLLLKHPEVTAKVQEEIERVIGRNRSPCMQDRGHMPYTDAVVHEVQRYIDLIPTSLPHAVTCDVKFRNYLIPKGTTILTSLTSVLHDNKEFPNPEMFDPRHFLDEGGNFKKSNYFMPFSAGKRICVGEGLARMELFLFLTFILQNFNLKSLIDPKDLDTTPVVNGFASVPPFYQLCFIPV
The test system of data set [17] is Mus musculus. Nature of the data set: Inhibition of collagen-induced arthritis in mouse at 30 mg/kg, po. In kind it is functional.
Data set [18] relates to Rattus norvegicus. Nature of the data set: Reduction of swelling in adjuvant-induced arthritis rat at 30 mg/kg, po. Set-up: scale not given: the % may be the effect or the level left. Type of data set: functional.
Data set [19] concerns the target T1, MAP kinase p38. Nature of the data set: Inhibition of p38 phosphorylation. Type of data set: protein assay.
Data set [20] has as its target T1, MAP kinase p38. Briefly: Inhibition of activated p38 kinase up to 10 uM. In kind it is protein assay.
Data set [21] addresses T3, 5-hydroxytryptamine receptor 3A (Homo sapiens, UniProt P46098).
T3 sequence (P46098 whole entry): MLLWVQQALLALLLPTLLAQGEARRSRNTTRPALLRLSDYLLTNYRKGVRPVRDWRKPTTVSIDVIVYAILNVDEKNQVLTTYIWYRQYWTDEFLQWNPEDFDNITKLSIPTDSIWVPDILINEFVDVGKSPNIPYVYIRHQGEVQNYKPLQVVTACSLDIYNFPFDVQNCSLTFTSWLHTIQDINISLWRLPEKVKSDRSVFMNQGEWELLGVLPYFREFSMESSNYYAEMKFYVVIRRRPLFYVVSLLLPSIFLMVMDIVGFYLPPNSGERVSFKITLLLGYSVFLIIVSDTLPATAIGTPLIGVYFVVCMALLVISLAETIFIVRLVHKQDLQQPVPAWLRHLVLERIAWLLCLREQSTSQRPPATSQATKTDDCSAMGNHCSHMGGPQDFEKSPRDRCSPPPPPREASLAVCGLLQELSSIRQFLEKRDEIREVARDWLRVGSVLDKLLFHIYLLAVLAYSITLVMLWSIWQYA
Briefly: Inhibition of 5HT3 receptor.

The source made the active and inactive calls. The rule behind the calls is not given here.

Cytochrome P450 2D6, sequence (P10635 whole entry): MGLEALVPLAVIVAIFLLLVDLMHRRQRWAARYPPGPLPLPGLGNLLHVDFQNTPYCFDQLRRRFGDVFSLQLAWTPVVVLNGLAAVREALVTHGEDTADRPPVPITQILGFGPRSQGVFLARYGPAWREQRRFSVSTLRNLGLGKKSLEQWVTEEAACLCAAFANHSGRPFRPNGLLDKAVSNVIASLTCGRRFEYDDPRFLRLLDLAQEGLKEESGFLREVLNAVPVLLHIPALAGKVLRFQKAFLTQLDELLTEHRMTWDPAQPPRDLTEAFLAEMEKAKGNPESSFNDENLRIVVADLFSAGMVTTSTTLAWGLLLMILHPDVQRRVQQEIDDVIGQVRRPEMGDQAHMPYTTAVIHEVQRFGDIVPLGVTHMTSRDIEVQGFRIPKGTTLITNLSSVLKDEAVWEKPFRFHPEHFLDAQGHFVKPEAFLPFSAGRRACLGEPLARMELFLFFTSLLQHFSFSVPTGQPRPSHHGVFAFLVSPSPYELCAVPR
Cytochrome P450 3A4, sequence (P08684 whole entry): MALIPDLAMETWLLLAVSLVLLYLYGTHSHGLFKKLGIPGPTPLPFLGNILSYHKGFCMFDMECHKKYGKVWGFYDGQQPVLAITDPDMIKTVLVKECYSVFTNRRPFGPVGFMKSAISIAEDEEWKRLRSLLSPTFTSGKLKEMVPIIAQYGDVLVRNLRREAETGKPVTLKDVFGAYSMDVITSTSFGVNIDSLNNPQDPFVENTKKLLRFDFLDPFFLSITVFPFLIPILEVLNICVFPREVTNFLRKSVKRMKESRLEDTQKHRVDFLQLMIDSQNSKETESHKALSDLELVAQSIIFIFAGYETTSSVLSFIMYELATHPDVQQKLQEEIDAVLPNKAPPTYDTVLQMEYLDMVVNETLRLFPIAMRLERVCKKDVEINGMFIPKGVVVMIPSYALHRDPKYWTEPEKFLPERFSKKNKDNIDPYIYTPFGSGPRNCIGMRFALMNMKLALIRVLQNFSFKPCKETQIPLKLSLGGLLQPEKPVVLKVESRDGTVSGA

Turning to `CC(=O)N1CCN(c2c(-c3ccncc3)c(-c3ccc(F)cc3)c(C#N)n2C)CC1.Cl`, the bioavailability in [1], in data set [2], in data set [3] and in data set [4] was 70% in each case.

`Cn1c(C(=O)c2ccccc2)c(-c2ccc(F)cc2)c(-c2ccncc2)c1N1CCNCC1` had an IC50 in data set [5] of 660 nM.

In data set [5], `COC(=O)c1c(-c2ccc(F)cc2)c(-c2ccncc2)c(NC2CCNCC2)n1C` came in with an IC50 of 315 nM.

As for `Cn1cc(-c2ccc(F)cc2)c(-c2ccncc2)c1N1CCNCC1`, in [5], half-maximal inhibition (IC50) was put at 15 nM.

In data set [5], `CC(=O)c1c(-c2ccc(F)cc2)c(-c2ccncc2)c(N2CCN(C(C)=O)CC2)n1C` displayed an IC50 of 43 nM. Moreover, the Activity entry in data set [6] is “Non-toxic”.

`CC(=O)c1c(-c2ccc(F)cc2)c(-c2ccncc2)c(N2CCN(C)CC2)n1C` yielded an IC50 in data set [5] of 529 nM. The same compound had an inhibition in vivo at 10 mg/kg in data set [7] of 40%.

As to `COC(=O)c1c(-c2ccc(F)cc2)c(-c2ccncc2)c(NCCN(C)C)n1C`, in data set [5], the IC50 turned out to be 98 nM.

The compound `CCN1CCN(c2c(-c3ccncc3)c(-c3ccc(F)cc3)c(C(=O)OC)n2C)CC1` returned a 50% inhibitory concentration (IC50) in data set [5] of 135 nM. The Activity result in [6] is “Non-toxic”.

In the case of `COC(=O)c1c(-c2ccc(F)cc2)c(-c2ccncc2)c(NCCN2CCOCC2)n1C`, the IC50 in [5] is 50 nM.

The compound `CN1CCN(c2c(-c3ccncc3)c(-c3ccc(F)cc3)c(C#N)n2C)CC1` yielded an IC50 in data set [5] of 80 nM.

In [5], `COC(=O)c1c(-c2ccc(F)cc2)c(-c2ccncc2)c(N2CCN(C)CC2)n1C` showed an IC50 of 95 nM. In [6], the Activity result is “Non-toxic”.

As for `CCC(=O)c1c(-c2ccc(F)cc2)c(-c2ccncc2)c(N2CCNCC2)n1C`, the IC50 in [5] was determined as 67 nM.

On to `CCOC(=O)c1c(-c2ccc(C)cc2)c(-c2ccncc2)c(N2CCNCC2)n1C`, for which the IC50 in data set [5] came out at 60 nM; in data set [9], 3.939 µM. The inhibition in vivo at 10 mg/kg in data set [8] was 79%.

Regarding `CC(=O)N1CCN(c2c(-c3ccncc3)c(-c3ccc(F)cc3)c(C#N)n2C)CC1` [listing 1 of 2 here], the IC50 amounted to 123 nM in [5], 2 µM in [9], 4 µM in [14] and 8 µM in data set [16]. Besides, the ED50 in [10] was 0.5 mg/kg. Besides, the Activity result in data set [6] is reported as “Non-toxic”; in [12], “Not Active”; in data set [13], “Not Active”; in [15] it was “Not Active”; in data set [18], 91%. The dissociation constant Kd in data set [11] turned out to be 100 nM. Besides, the inhibition in vivo at 30 mg/kg in data set [17] was found to be 50%.

Compound `Cn1c(C#N)c(-c2ccc(F)cc2)c(-c2ccncc2)c1N1CCNCC1` registered a half-maximal inhibitory concentration (IC50) in data set [5] of 18 nM. This compound gave an ED50 in [10] of 5 mg/kg.

In data set [5], `COC(=O)c1c(-c2ccc(F)cc2)c(-c2ccncc2)c(N2CCN(C(C)C)CC2)n1C` came in with an IC50 of 1980 nM.

`COC(=O)c1c(-c2ccc(F)cc2)c(-c2ccncc2)c(NCCN2CCCCC2)n1C` registered a 50% inhibitory concentration (IC50) in data set [5] of 92 nM.

In data set [5], `COC(=O)c1c(-c2ccc(F)cc2)c(-c2ccncc2)c(N2CCCC2)n1C` had an IC50 of 17 nM.

As for `COC(=O)c1c(-c2ccc(F)cc2)c(-c2ccncc2)c(N2CCOCC2)n1C`, half-maximal inhibition in [5] (IC50) required 47 nM.

Compound `CC(=O)c1c(-c2ccc(F)cc2)c(-c2ccncc2)c(N2CCNCC2)n1C` displayed an IC50 in [5] of 40 nM. Further, the Activity entry in data set [6] was “Non-toxic”.

As for `CC(=O)N1CCN(c2c(-c3ccncc3)c(-c3ccc(F)cc3)c(C#N)n2C)CC1` [listing 2 of 2 here], in [19], the result was Active.

`COC(=O)c1c(-c2ccc(F)cc2)c(-c2ccncc2)c(N(C)CCN2CCOCC2)n1C` gave a 50% inhibitory concentration (IC50) in data set [5] of 38 nM. In addition, the ED50 in [10] is 3 mg/kg. Further, testing at 10 mg/kg in data set [8] gave an inhibition in vivo of 78%.

Take `CNC(=O)c1c(-c2ccc(F)cc2)c(-c2ccncc2)c(N2CCNCC2)n1C`: inhibition in data set [5] was half-maximal at 779 nM (IC50).

Turning to `COC(=O)c1c(-c2ccc(F)cc2)c(-c2ccncc2)c(N2CCNCC2)n1C`, the half-inhibitory concentration (IC50) came to 33 nM in data set [5] and 275 nM in data set [21]. The median effective dose (ED50) in data set [10] was found to be 7.5 mg/kg. In addition, the result in [20] was inactive. Moreover, the Activity entry in [6] is “Toxic”.

Turning to `CCOC(=O)c1c(-c2cc(F)cc(F)c2)c(-c2ccncc2)c(N2CCNCC2)n1C`, the half-maximal inhibitory concentration (IC50) is 93 nM in data set [5] and over 10 µM in data set [9]. At 10 mg/kg the inhibition in vivo in [8] was 79%.

Take `CCCN1CCN(c2c(-c3ccncc3)c(-c3ccc(F)cc3)c(C(=O)OC)n2C)CC1`: it took 901 nM to reach half-maximal inhibition in data set [5] (IC50).

`CC(C)NC(=O)c1c(-c2ccc(F)cc2)c(-c2ccncc2)c(N2CCNCC2)n1C` showed an IC50 in data set [5] of 10000 nM.

Turning to `CC(=O)C(=O)c1c(-c2ccc(F)cc2)c(-c2ccncc2)c(N2CCNCC2)n1C`, in data set [5], inhibition was half-maximal at 28 nM (IC50). In addition, the inhibition in vivo at 10 mg/kg in [8] is 52%.

`COC(=O)c1c(-c2ccc(F)cc2)c(-c2ccncc2)c(C2=CCNCC2)n1C`: the midpoint of inhibition in data set [5], the IC50, lay at 72 nM. Also, the Activity result in data set [6] is listed as “Non-toxic”.

`CCOC(=O)c1c(-c2cccc(C(F)(F)F)c2)c(-c2ccncc2)c(N2CCNCC2)n1C`: the IC50 was 21 nM in data set [5] and over 10 µM in [9].

Source of the values: ChEMBL document CHEMBL1139735, “Inhibitors of unactivated p38 MAP kinase” (Bioorg Med Chem Lett, 2006).
